Here are results for eight compounds from publication PMC10150359 (Journal of Medicinal Chemistry, 2023).

Structures are written as SMILES. Read-outs that look alike come from different tables or passages of the source.

Series [1] relates to EBOV-GP-Pseudotype Virus (pEBOV). Kind of series: microbe, parasite or virus in culture. Particulars: Zaire ebolavirus, HeLa, 48 h, read-out: EC50 (μM) (pEBOV).
For series [2], the system named is VSV-G-pseudotype virus (pVSV-G). Nature of the series: microbe, parasite or virus in culture. Format: cell-based. Particulars: Vesicular stomatitis virus, read-out: %inh@10 µM (pVSV-G).
Series [3] concerns EBOV-GP-Pseudotype Virus (pEBOV).
Series [4] relates to wild-type Zaire EBOV Mayinga 1976 strain (EBOV May). Kind of series: microbe, parasite or virus in culture. The following applies: Zaire ebolavirus, Vero C1008, 72 h, read-out: EC50 (μM), replicative EBOV.
The test system is the same in series [5].
Series [6] concerns EBOV-GP-Pseudotype Virus (pEBOV). The following applies: cited from earlier work.
The nature of series [7]: in vitro. The following applies: chlorocebus sabaeus.
A short description of series [8]: in vitro. The following applies: human.
The target of series [9] is T1, hERG potassium channel (Homo sapiens, UniProt Q12809).
The conditions of series [10]: male, BALB/c, mouse, in vivo.
Series [11] has as its target T1, hERG potassium channel. Nature of the series: in vitro. Particulars: pH 7.2.
For the next series, the target named is EBOV-GPcl/NPC1-domain C (Zaire ebolavirus, UniProt Q05320). Type of series: binding, Homo sapiens.
For series [12] the following is noted: CD-1, mouse, pH 7.4.
A further series is described as follows: in vivo. Particulars: male, BALB/c, mouse; for Cmax at 24 h: Cmax (ng/mL).
The conditions of series [13]: pH 7.4.
The nature of series [14]: in vitro. The following applies: CD-1, mouse, microsomes, pH 7.4.
A short description of series [15]: in vitro. Particulars: human, microsomes, pH 7.4.
Where [16] appears, read: ip, 10 mg/kg, Brain-Kp (AUClast).
The mark [17] stands for this setting: po, 50 mg/kg, Brain-Kp (AUClast).

T1 sequence (Q12809 whole entry): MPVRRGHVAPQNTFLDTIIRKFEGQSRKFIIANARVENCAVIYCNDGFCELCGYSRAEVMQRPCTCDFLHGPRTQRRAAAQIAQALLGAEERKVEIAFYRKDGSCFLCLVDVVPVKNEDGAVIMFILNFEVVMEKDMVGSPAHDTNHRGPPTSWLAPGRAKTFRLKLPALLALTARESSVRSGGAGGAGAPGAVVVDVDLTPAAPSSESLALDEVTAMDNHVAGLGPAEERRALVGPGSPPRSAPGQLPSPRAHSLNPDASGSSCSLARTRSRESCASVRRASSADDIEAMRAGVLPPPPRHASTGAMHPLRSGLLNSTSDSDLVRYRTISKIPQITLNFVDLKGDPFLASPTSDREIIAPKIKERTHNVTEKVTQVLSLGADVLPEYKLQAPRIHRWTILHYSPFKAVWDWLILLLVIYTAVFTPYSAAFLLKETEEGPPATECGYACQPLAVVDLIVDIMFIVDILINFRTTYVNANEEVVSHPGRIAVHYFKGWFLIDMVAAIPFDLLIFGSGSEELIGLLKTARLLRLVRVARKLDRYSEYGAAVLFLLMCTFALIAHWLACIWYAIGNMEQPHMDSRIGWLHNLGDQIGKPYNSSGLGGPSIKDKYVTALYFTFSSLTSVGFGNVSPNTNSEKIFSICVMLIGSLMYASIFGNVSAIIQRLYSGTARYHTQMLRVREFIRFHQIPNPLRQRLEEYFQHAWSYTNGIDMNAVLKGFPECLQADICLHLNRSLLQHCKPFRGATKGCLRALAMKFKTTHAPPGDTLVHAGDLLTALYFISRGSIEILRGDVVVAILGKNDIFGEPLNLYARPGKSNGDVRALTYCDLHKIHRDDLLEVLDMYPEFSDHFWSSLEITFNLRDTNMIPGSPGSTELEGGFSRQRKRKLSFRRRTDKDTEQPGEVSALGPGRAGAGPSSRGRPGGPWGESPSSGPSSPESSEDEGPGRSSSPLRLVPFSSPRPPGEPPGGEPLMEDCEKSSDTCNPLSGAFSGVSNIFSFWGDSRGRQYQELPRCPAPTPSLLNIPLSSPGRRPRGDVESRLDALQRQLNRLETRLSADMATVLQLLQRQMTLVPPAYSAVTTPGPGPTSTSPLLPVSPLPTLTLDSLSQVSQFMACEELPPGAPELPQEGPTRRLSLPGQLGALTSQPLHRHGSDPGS
Chain of EBOV-GPcl/NPC1-domain C (Q05320 33-190 limits assumed): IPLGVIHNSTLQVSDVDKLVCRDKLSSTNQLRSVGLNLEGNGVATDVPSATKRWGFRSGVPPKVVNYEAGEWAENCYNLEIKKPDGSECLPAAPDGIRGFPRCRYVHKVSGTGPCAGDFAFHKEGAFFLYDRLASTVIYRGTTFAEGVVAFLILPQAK
Chain of EBOV-GPcl/NPC1-domain C (Q05320 502-676 limits assumed): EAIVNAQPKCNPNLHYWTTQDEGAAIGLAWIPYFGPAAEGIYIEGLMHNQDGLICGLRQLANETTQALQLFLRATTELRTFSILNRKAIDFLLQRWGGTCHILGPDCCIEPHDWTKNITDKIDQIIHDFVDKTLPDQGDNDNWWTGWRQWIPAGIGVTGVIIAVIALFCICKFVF

As a reminder, the EC50 is the concentration that produces a half-maximal response. In general, IC50 refers to the concentration at which inhibition is half-maximal. On to `O=C(CNCCC1CCN(Cc2ccccc2)CC1)Nn1c2ccccc2c2ccccc21` [Compound 1], for which the concentration for a half-maximal effect (EC50) in series [1] stood at 0.37 µM; in [4], 1.5 µM. Also, the inhibition at 10 µM in series [2] was found to be 25%. In series [3], the “SI (pEBOV) (CC50/EC50)” value is recorded as 19. In addition, the “SI (CC50/EC50), replicative EBOV” value in [5] amounted to 11.0. Moreover, the IC50 in series [6] was 0.37 µM.

`O=C(CCNCCC1CCN(Cc2ccccc2)CC1)Nn1c2ccccc2c2ccccc21` [Compound 2]: the figures for the CC50 at 24 h in the series “in vitro [7]” and in the series “in vitro [8]” were 4.75 µM and 0.46 µM, respectively. The results for the EC50 in series [1] and in [4] were 0.16 µM and 0.52 µM, respectively. Besides, the inhibition at 10 µM in series [2] was 10%. Moreover, the “SI (pEBOV) (CC50/EC50)” value in series [3] is 2.87. In [5], the “SI (CC50/EC50), replicative EBOV” value was 9.1.

Take `O=C(CNCCC1CCN(Cc2ccccc2)CC1)NC1c2ccccc2-c2ccccc21` [Compound 9, 2-((2-(1-Benzylpiperidin-4-yl)ethyl)amino)-N-(9H-fluoren-9-yl)acetamide]: the CC50 at 24 h in “in vitro [7]” was found to be 33.6 µM; in the series “in vitro [8]”, 159 µM. For the same compound, the results for the EC50 in series [1] and in series [4] were 1.7 µM and 0.25 µM, respectively. For the same compound, the inhibition at 10 µM in [2] was -10%. Further, in series [3], the “SI (pEBOV) (CC50/EC50)” value turned out to be 93. For the same compound, the “SI (CC50/EC50), replicative EBOV” value in [5] is on record as 134.6.

On to `O=C(CNCCC1CCN(Cc2ccccc2)CC1)NN(c1ccccc1)c1ccccc1` [Compound 10, 2-((2-(1-Benzylpiperidin-4-yl)ethyl)amino)-N′,N′-diphenylacetohydrazide], for which the CC50 at 24 h in “in vitro [7]” amounted to 32.2 µM; in “in vitro [8]” it was 48 µM. Moreover, the concentration giving a half-maximal response (EC50) in [1] amounted to 3.13 µM; in [4], 1.9 µM. The inhibition at 10 µM in [2] was 2%. For the same compound, in series [3], the “SI (pEBOV) (CC50/EC50)” value is listed as 15. Moreover, the “SI (CC50/EC50), replicative EBOV” value in series [5] is on record as 16.9.

By Cmax is commonly meant the maximum level reached in the sampled fluid or tissue. As usually defined, the half-life is the time in which the quantity being followed falls by half. A high value points to slow loss. For orientation: AUC(0-t) means the area under the concentration-time curve up to a stated or last time point. Higher therefore signals more exposure. Take `O=C(CCNCCC1CCN(Cc2ccccc2)CC1)NN(c1ccccc1)c1ccccc1` [Compound 11, 3-((2-(1-Benzylpiperidin-4-yl)ethyl)amino)-N′,N′-diphenylpropanehydrazide]: at hERG potassium channel [9], the “cardiotoxicity classification from hERG IC50” value is on record as “not cardiotoxic”. Besides, the “estimated concentration on plasma” value in series [10] was 0.62 µM. For the same compound, in series [10] (po, 50 mg/kg, 24 h), the “AUClast” value amounted to 3354.96 ng·h/mL. For the same compound, the highest concentration (Cmax) in series [10] (po, 50 mg/kg, 24 h) is recorded as 201.45 ng/mL. The same compound gave an IC50 against hERG potassium channel [11] of 16.4 µM. For the same compound, the CC50 at 24 h in “in vitro [7]” was determined as 9.47 µM; in “in vitro [8]” it was 6 µM. For the same compound, the EC50 came out at 0.05 µM in [1] and 0.3 µM in series [4]. Moreover, the “loss of binding between EBOV-GPcl/NPC1-domain C” value on EBOV-GPcl/NPC1-domain C is listed as “does it to a lesser extent”. In addition, the “CLint (mL/min/mg protein), mouse liver microsomes” value in [12] is listed as 96 ± 23 mL/min/mg protein. Moreover, the Kp at 24 h in “in vivo” (setting [16]) amounted to 2.04; in “in vivo” (ip, 10 mg/kg, Brain-Kp (Cmax)), 0.18; in “in vivo” (setting [17]), 1.66; in “in vivo” (po, 50 mg/kg, Brain-Kp (Cmax)), 0.72. The compound also had a half-life at 24 h in the series “in vivo” (po, 50 mg/kg) of 352 min. In addition, the AUC(0-t) at 24 h in “in vivo” (po, 50 mg/kg, AUClast (h × ng/mL)) came to 2020 ng·h/mL. In addition, the Cmax at 24 h in the series “in vivo” (po, 50 mg/kg) stood at 278 ng/mL. The inhibition at 10 µM in series [2] was 50%. Also, the “CLint (mL/min/mg protein), human liver microsomes” value in series [13] was 13 ± 1 mL/min/mg protein. Moreover, the results for the half-life at 1 h, 10 µM in “in vitro [14]” and in “in vitro [15]” were 26 ± 6 min and 45 ± 3 min, respectively.

As to `O=C(CNCCN1CCN(Cc2ccccc2)CC1)NN(c1ccccc1)c1ccccc1` [Compound 12, 2-((2-(4-Benzylpiperazin-1-yl)ethyl)amino)-N′,N′-diphenylacetohydrazide], the CC50 at 24 h in the series “in vitro [7]” turned out to be 101 µM; in the series “in vitro [8]”, 108 µM. Further, the EC50 was determined as 2.17 µM in series [1] and 7.8 µM in [4]. Also, in [2], the inhibition at 10 µM was -29%. In addition, the “SI (pEBOV) (CC50/EC50)” value in [3] was determined as 63. The “SI (CC50/EC50), replicative EBOV” value in series [5] is 12.9.

`O=C(CCNCCN1CCN(Cc2ccccc2)CC1)NN(c1ccccc1)c1ccccc1` [Compound 13, 3-((2-(4-Benzylpiperazin-1-yl)ethyl)amino)-N′,N′-diphenylpropanehydrazide]: the “cardiotoxicity classification from hERG IC50” value on hERG potassium channel [9] was “not cardiotoxic”. The “Cmax” value in series [10] (ip, 10 mg/kg, 24 h) is given as 170.55 ng/mL. The IC50 at hERG potassium channel [11] was 14.9 µM. Besides, the CC50 at 24 h in “in vitro [7]” stood at 35.5 µM; in the series “in vitro [8]”, 159 µM. Besides, the EC50 was determined as 0.58 µM in series [1] and 2.7 µM in [4]. Also, on EBOV-GPcl/NPC1-domain C, the “loss of binding between EBOV-GPcl/NPC1-domain C” value is on record as “interferes with the NPC1/EBOV-GPcl interaction similarly than our hit 1 (SC816)”. Also, in series [12], the “CLint (mL/min/mg protein), mouse liver microsomes” value was determined as 170 ± 20 mL/min/mg protein. Also, the half-life at 24 h in “in vivo” (ip, 10 mg/kg) is 46.2 min; in “in vivo” (po, 50 mg/kg) it was 262 min. Moreover, the Kp at 24 h in “in vivo” (setting [16]) was 46.4; in the series “in vivo” (ip, 10 mg/kg, Brain-Kp (Cmax)), 0.99; in the series “in vivo” (setting [17]) it was 46.5; in “in vivo” (po, 50 mg/kg, Brain-Kp (Cmax)), 3.65. For the same compound, the peak level in “in vivo” (ip, 10 mg/kg) (Cmax at 24 h) was 172 ng/mL. The inhibition at 10 µM in [2] stood at 42%. For the same compound, the “CLint (mL/min/mg protein), human liver microsomes” value in series [13] is given as 10.8 ± 0.3 mL/min/mg protein. Also, the half-life at 1 h, 10 µM was determined as 14 ± 2 min in “in vitro [14]” and 53 ± 2 min in “in vitro [15]”.

In the case of `CN1CCN(CCC(=O)NN(c2ccccc2)c2ccccc2)CC1` [Compound 14, 3-(4-Methylpiperazin-1-yl)-N′,N′-diphenylpropanehydrazide], the CC50 in the series “in vitro [7]” and in “in vitro [8]” was more than 100 µM each time. The concentration giving a half-maximal response (EC50) in series [1] was 0.27 µM; in series [4], more than 100 µM. In [2], the inhibition at 10 µM was 2%. Also, in [3], the “SI (pEBOV) (CC50/EC50)” value was 358.
